Data from article PMC10486604 (Cancers, 2023).
Like-named read-outs stand apart in the source and are kept apart here.

Columns and labels:
[1] = In vivo pharmacokinetics in 786-O tumor-bearing mice; details: female, NMRI nu/nu, mouse, iv, 4 mg/kg
Experimental: Plasma and tumor samples were collected and frozen at <−15 °C until sample analysis. Samples were analyzed for concentrations of respective SMDCs and the released payload 1 by LC/MS/MS. […] All pharmacokinetic parameters were calculated by non-compartmental methods.

MA4296 = assay: Orthotopic TNBC PDX model MA4296; format: in vivo, mouse; details: orthotopic TNBC PDX models, both schedules
Experimental: Two orthotopic TNBC PDX mouse models were performed. Tumor cells were inoculated into the mammary fat pad of mice. Therefore, the mice were anesthetized shortly before surgery. After disinfection of the skin, mice received a small incision in the skin between the 4th and 5th dug. Each mouse was implanted with 2.5 × 10^6 (MA4296) or 5 × 10^6 (MA15191) cells. Treatment started on day 20 after inoculation, when palpable tumor sizes reached 127 mm^3 (day 33 for MA15191). […] Tumors were measured twice weekly with calipers, and their volume was calculated with the following formula: (length × width^2)/2. The body weight was also determined two times weekly. Reasons for termination were tumor size > 1.5 cm^3 or poor general condition. At the end of the study, tissue sampling for IHC and PCR analyses was performed. The statistical analysis was performed using mixed-effect analysis with Tukey’s multiple comparisons test (GraphPad Prism 8.4.2) to calculate significance in tumor growth inhibition between vehicle and treatment groups over time. The Kruskal–Wallis test was used to determine significance at study days 43 and 47. Additionally, the unpaired t-test was performed.

human NE = target: T1, human NE (Homo sapiens, UniProt P08246); assay: Human NE biochemical cleavage assay; details: read-out: Km (cleavage to payload 1)
T1 sequence (P08246 30-267): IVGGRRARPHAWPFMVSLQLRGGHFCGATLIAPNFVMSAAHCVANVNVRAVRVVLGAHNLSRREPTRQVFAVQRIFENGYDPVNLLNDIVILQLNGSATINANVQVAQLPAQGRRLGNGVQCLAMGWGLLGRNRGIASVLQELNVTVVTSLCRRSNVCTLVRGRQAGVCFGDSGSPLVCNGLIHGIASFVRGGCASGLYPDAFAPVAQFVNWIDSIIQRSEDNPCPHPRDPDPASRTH
Experimental: Then, 125 μL of pre-heated buffer (100 mM Tris pH 7.5, 150 mM NaCl, 10 mM CaCl2, and 0.05% BSA) was added to each incubation. The reaction was started by adding 0.5 or 1 nM activated mouse elastase (according to manufacturer’s protocol) or human NE to the reaction vials. A negative control without elastase was run under the same conditions. The reaction was stopped at 0, 4.5, 8, and 12 min by the addition of acidified acetonitrile/0.2% formic acid. Camptothecin was used as internal standard for the LC/MS/MS analysis.

LXFL529 = assay: PDX model LXFL529 (NSCLC), subcutaneous; format: in vivo, mouse; details: across PDX models
Experimental: Studies were conducted according to all applicable international, national, and local laws and followed the national guidelines for the Care and Use of Laboratory Animals of the Society of Laboratory Animal Science (GV-SOLAS). All animal experiment protocols were approved by the Regional Council Committee on the Ethics of Animal Experiments. Non-small-cell lung (LXFL529) and renal (RXF2667) PDX mouse models comprised six groups each with 10 animals. Tumor fragments (3–4 mm edge length) were transplanted, and tumor growth was monitored until a median size of about 120–150 mm^3 was achieved. […] Both experiments were terminated after a three-week recovery phase on day 63. Animals were monitored at least twice daily on working days and at least once daily on weekends (tumor size and body weight measurement). Colon (CXF2068) and triple-negative breast cancer (TNBC) (MAXF BR120) PDX mouse models were performed as described above with changes in schedule. […] The statistical significance of antitumor efficacy was analyzed by the non-parametric Kruskal–Wallis test, followed by Dunn’s method for multiple comparisons using GraphPad Prism bioanalytic software (version 9.10), with p < 0.05 as significant. Additionally, a nonpaired t-test was performed using GraphPad Prism (version 9.10).

[2] = payload 1 dosed directly 1 mg/kg IV, 786-O tumor-bearing mice, cited from earlier work
NCI-H292 = assay: In vitro proliferation (MTT) assay in presence and absence of NE, NCI-H292; format: cell-based; details: Homo sapiens, 72 h
Experimental: (§1) The in vitro cytotoxicity was evaluated in cancer cell lines NCI-H292 and LoVo after a 72-h continuous exposure to the presence or absence of 20 nM NE using MTT assays (ATCC, Manassas, VA, USA). IC50 values were determined as the concentration of compound required for 50% inhibition of cell viability.

LoVo = assay: In vitro proliferation (MTT) assay in presence and absence of NE, LoVo; format: cell-based; details: Homo sapiens, 72 h
Experimental: as §1

Compound	half-life [1]	Tolerability (MA4296)	Km (human NE; enzyme concentration 0.5 nmol)	Km (human NE; enzyme concentration 1.0 nmol)	Tolerability (weight loss) (LXFL529)	AUCplasma of payload 1 (VIP126) [2]	AUCtumor of payload 1 (VIP126) [2]	AUCtumor/AUCplasma of payload 1 (VIP126) [2]	AUCtumor/AUCplasma of payload 1 (VIP126) ([2]; listed as Payload 1 (VIP126))	IC50 (NCI-H292; absence of hNE, read-out: NCI H292 IC50)	IC50 (NCI-H292; presence of 20 nM hNE, read-out: NCI H292 + hNE IC50)	IC50 (LoVo; absence of hNE, read-out: LoVo IC50)	IC50 (LoVo; presence of 20 nM hNE, read-out: LoVo + hNE IC50)
CCCNC(=O)Nc1cccc(S(=O)(=O)Nc2cccc([C@H](CC(=O)O)NC(=O)Nc3ccc(NC(=O)NCCOCCOCCOCCC(=O)N[C@@H](CC(=O)O)C(=O)N4CCC[C@H]4C(=O)N[C@H](C(=O)O[C@]4(CC)C(=O)OCc5c4cc4n(c5=O)Cc5c-4nc4ccccc4c5CC)C(C)C)cc3)c2)c1 [8e2]	1.3 h	–	–	–	–	–	–	–	–	–	–	–	–
CCCNC(=O)Nc1cccc(S(=O)(=O)Nc2cccc([C@@H](CC(=O)O)NC(=O)Nc3ccc(NC(=O)NCCOCCOCCOCCC(=O)N[C@@H](CC(=O)O)C(=O)N4CCC[C@H]4C(=O)N[C@H](C(=O)O[C@]4(CC)C(=O)OCc5c4cc4n(c5=O)Cc5c-4nc4ccccc4c5CC)C(C)C)cc3)c2)c1 [VIP236]	0.807 h	well tolerated	9.4 µM	9.6 µM	well tolerated	–	–	–	–	–	–	–	–
CCc1c2c(nc3ccccc13)-c1cc3c(c(=O)n1C2)COC(=O)[C@]3(O)CC [compound 1, 7-ethyl camptothecin]	–	–	–	–	–	301 ng·h/mL	185 ng·h/mL	0.61	0.616	1.54 nM	1.35 nM	1.9 nM	1.85 nM
